Like-named read-outs stand apart in the source and are kept apart here.
Columns and labels:
[1] = test system: NCI-H522 Lung Cancer cell line; assay: MTT cell proliferation / cytotoxicity assay, NCI-H522; type: cell-based, human; details: for ED50 (in words): NCI-H522, MTT assay; for EC50: MTT, read-out: Effective Dose 50 (ED50)
Procedure: (§1) Examples measuring the effectiveness of mer-[RuCl3(DMSO)(dmpyz)2 in treating two lines of cancer cells is presented herein. Lung Cancer Cell lines NCI-H522 and NCI-H23 from ATCC were grown in RPMI (growth medium) supplemented with 10% heat inactivated fetal bovine serum (FBS) along with penicillin and streptomycin. All cells were grown at humidified, carbon dioxide enriched atmosphere (+37° C. with 5% CO2).
(§2) NCI-H522 cells were seeded at 50,000 cells/well and NCI-H23 at 30,000cells/well in a 96-well microtiter plate in RPMI with 10% FBS. Cells were incubated at humidified atmosphere (+37° C. with 5% CO2) for overnight attachment. A mer-[RuCl3(DMSO)(dmpyz)2 drug along with the positive control drug Doxorubicin were used in following concentrations (100 μM, 33 μM, 11 μM, 3.7 μM, 1.2 μM, 0.4 μM per well of cells) and added in triplicates and incubated for 3 time durations (24 hrs,48 hrs,72 hrs) at humidified atmosphere (37° C. with 5% CO2). Thereafter the cells were treated with 10 μl (final concentration 0.5 mg/ml) 3-(4,5-dimethylthiazol-2-yl)- 2,5-diphenyltetrazolium bromide (MTT, see Cell Proliferation Kit I MTT Roche: Cat No: 11465007001). The microplate were incubated for 4 hours in a humidified atmosphere (+37° C., 5% CO2). Four hours later 100 μl of solubilization solution (from Roche MTT kit) was added into each well. The plate were allowed to stand overnight in the incubator in a humidified atmosphere (+37° C., 5% CO2). The complete solubilization of the purple formazan crystals was check for and measure the absorbance of the samples using a microplate (ELISA) reader. The wavelength was measure for absorbance of the formazan product at 562 nm the reference wavelength used was 630 nm. Percentage viable cells were calculated as below. % viable cells=(ab of sample-ab of blank/ab control-ab blank) X100 % cytotoxicity or % inhibition=100−% viable cells
(§3) The Effective Dose 50 (ED50) was extrapolated from the dose-response graph. The drug concentration that reduced the viability of the cells by 50% (ED50) was determined by plotting data points over a concentration range and calculating values using PRISM program.
(§4) The MTT assay is used to measure cellular metabolic activity as an indicator of cell viability, proliferation and cytotoxicity. This colorimetric assay is based on the reduction of a yellow tetrazolium salt (3-(4,5-dimethylthiazol-2-yl)-2,5-diphenyltetrazolium bromide or MTT) to purple formazan crystals by metabolically active cells. Viable cells produce enzymes that convert yellow MTT to insoluble purple formazan. The more viable cells present in a sample, the more intense the purple color. This test is widely used in the in vitro evaluation of cytotoxic potency of drugs. In the present study we applied the MTT assay to evaluate the potency of mer-[RuC3(DMSO)(dmpyz)2 anti-cancer drug in various human lung cancer cell lines.

[2] = test system: NCI-H23 Lung Cancer cell line; assay: MTT cell proliferation / cytotoxicity assay, NCI-H23; type: cell-based, human; details: for ED50 (in words): NCI-H23, MTT assay; for EC50: MTT, read-out: Effective Dose 50 (ED50)
Procedure: as §1, §2, §3, §4

H522 cell lines (NSCLC) = assay: Ruthenium complex screening against cancer subtypes (FIG. 3); type: cell-based
Text: Still, preliminary tests show promise that dosage of RuCl3(DMSO)(dmPyz)2 is effective against NSCLC subtypes. FIG. 3 is a table showing the results of Ruthenium complex screening conducted to test the efficacy of the current Ruthenium (III) complexes to various cancer subtypes.

Compound	ED50 (in words) [1]	ED50 (in words) [2]	cytotoxic response ([1]; H522 cell lines, 33 μM concentration)	EC50 ([1]; NCI-H522, 24 hrs treatment)	EC50 ([1]; NCI-H522, 48 hrs treatment)	EC50 ([1]; NCI-H522, 72 hrs treatment)	cell viability ([1]; NCI-H522, drug concentration 33 μM or more)	IC50 (H522 cell lines (NSCLC); suggested from 97% inhibition at 10 micromole)	inhibition of NSCLC (H522 cell lines (NSCLC); treatment of 10 micromole (M) purified, preliminary tests)	cytotoxic response ([2]; H23 cell lines, 100 μM concentration)	EC50 ([2]; NCI-H23, 24 hrs treatment)	EC50 ([2]; NCI-H23, 48 hrs treatment)	EC50 ([2]; NCI-H23, 72 hrs treatment)	cell viability ([2]; NCI-H23, drug concentration 100 μM)
COc1cccc2c1C(=O)c1c(O)c3c(c(O)c1C2=O)C[C@@](O)(C(=O)CO)C[C@@H]3O[C@H]1C[C@H](N)[C@H](O)[C@H](C)O1 [doxorubicin, Doxorubicin, reference compound]	comparable to published data	comparable to published data												
mer-[RuCl3(DMSO)(dmpyz)2	modest micromolar	modest micromolar	highly toxic	82.1 µM	11.7 µM	12.5 µM	reduces to zero	< 10 µM	97%	highly toxic	81.1 µM	77.4 µM	59.4 µM	reduces to zero
